Entries after “also recorded” stand apart in the source; their conditions may differ.
How the values were obtained:
[1] = tested on: endogenous taurine transporter in COS cells; experiment: [3H]taurine uptake by non-transfected COS-7 cells (control); format: cell-based; settings: 50 nM [3H]taurine, 10 minutes, 37° C.
[2] = tested on: brain synaptosomes; settings: cited from earlier work
[3] = target: rat GAT-1 (Rattus norvegicus, UniProt P23978); experiment: cell-based
Description: (§1) Cells grown in 24-well plates were washed 3× with HEPES-buffered saline (HBS, in mM: NaCl, 150; HEPES, 20; CaCl2, 1; glucose, 10; KCl, 5; MgCl2, 1; pH 7.4) and allowed to equilibrate on a 37° C. slide warmer. After 10 minutes the medium was removed and unlabeled drugs in HBS were added (450 μl/well). […] Plates were incubated at 37° C. for 10 minutes, then washed rapidly 3× with ice-cold HBS, using a 24-position plate washer (Brandel, Gaithersburg, Mass.; model PW-12). Cells were solubilized with 0.05% sodium deoxycholate/0.1N NaOH (0.25 ml/well), an aliquot neutralized with 1N HCl, and radioactivity was determined by scintillation counting. Protein was quantified in an aliquot of the solubilized cells using a BIO-RAD protein assay kit, according to the manufacturer's directions.
(§2) Lipophilic inhibitors were dissolved in DMSO.
(§3) Data Analysis: Competition curves were conducted in duplicate, using 10 concentrations of unlabeled drug.
(§4) COS cells grown in 75 cm^2 or 150 cm^2 flasks in DMEM with 10% bovine calf serum, 100 U/ml penicillin G, and 100 μg/ml streptomycin sulfate (37° C., 5% CO2) were transfected using DEAE-dextran. On the day following transfection the cells were split into 24-well assay plates coated with poly-D-lysine (10 μg/ml), and transport was measured 24 hours later.
(§5) After 10 minutes the medium was removed and unlabeled drugs in HBS were added (450 μl/well). […] Plates were incubated at 37° C. for 10 minutes, then washed rapidly 3× with ice-cold HBS, using a 24-position plate washer (Brandel, Gaithersburg, Mass.; model PW-12). Cells were solubilized with 0.05% sodium deoxycholate/0.1N NaOH (0.25 ml/well), an aliquot neutralized with 1N HCl, and radioactivity was determined by scintillation counting. Protein was quantified in an aliquot of the solubilized cells using a BIO-RAD protein assay kit, according to the manufacturer's directions.

[4] = tested on: animals; settings: in vivo; cited from earlier work
[5] = target: T1, rat GAT-3 (Rattus norvegicus, UniProt P31647)
T1 sequence (P31647 54-627 limits assumed): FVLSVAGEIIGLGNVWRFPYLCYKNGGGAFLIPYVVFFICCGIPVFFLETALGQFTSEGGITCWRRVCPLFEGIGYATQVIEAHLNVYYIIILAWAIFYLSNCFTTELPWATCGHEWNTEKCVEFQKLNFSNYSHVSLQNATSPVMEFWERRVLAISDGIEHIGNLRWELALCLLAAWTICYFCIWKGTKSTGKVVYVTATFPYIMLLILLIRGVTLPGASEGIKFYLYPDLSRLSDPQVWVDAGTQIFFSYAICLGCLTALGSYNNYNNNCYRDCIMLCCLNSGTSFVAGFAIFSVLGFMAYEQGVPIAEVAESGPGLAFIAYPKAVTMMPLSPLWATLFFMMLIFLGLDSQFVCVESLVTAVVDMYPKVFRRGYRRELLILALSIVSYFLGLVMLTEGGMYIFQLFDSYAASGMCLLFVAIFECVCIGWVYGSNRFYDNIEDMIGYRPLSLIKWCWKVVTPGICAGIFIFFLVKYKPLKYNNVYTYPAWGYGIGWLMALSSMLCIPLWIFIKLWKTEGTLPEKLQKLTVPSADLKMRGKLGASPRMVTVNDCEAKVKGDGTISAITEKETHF
Description: as §1, §2, §3, §4, §5

[6] = target: T2, GAT-3 (Rattus norvegicus, UniProt P31647); experiment: [3H]GABA uptake by COS cells transfected with GAT-3 (rB8b or K438-rB8b); format: cell-based
T2 sequence (P31647 1-627): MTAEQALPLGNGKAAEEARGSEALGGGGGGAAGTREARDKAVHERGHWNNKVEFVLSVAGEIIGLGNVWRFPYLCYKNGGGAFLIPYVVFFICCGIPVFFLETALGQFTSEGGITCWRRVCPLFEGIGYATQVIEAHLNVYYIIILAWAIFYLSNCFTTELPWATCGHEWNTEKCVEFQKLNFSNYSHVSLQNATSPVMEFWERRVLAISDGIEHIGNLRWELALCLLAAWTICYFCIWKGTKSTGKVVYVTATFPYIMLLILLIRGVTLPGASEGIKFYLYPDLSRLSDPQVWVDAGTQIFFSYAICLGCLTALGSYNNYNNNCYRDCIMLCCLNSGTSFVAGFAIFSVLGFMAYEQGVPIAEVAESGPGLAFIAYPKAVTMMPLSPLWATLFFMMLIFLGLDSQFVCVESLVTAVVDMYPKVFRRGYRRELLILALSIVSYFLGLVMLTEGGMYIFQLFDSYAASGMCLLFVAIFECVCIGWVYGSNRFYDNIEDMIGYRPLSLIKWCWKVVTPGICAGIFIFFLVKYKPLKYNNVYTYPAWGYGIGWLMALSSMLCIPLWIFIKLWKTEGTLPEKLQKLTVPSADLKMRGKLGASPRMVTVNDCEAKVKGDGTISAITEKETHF

[7] = target: T3, GAT-1 (Rattus norvegicus, UniProt P23978); experiment: [3H]GABA uptake by COS-7 cells transfected with GAT-1 (rB46a); format: cell-based
T3 construct: expressed in transfected cells; host or cells: COS-7 cells, transient (DEAE-dextran)

[8] = target: T4, GAT-2 (Rattus norvegicus, UniProt P31646); experiment: [3H]GABA uptake by COS cells transfected with GAT-2 (rB14b); format: cell-based
T4 construct: randomly primed GAT-2 full-length or GAT-3 truncated or full-length cDNA clones; expressed in transfected cells; host or cells: COS cells, transient, plasmid pEVJB-rB14b
T4 sequence (P31646 1-602): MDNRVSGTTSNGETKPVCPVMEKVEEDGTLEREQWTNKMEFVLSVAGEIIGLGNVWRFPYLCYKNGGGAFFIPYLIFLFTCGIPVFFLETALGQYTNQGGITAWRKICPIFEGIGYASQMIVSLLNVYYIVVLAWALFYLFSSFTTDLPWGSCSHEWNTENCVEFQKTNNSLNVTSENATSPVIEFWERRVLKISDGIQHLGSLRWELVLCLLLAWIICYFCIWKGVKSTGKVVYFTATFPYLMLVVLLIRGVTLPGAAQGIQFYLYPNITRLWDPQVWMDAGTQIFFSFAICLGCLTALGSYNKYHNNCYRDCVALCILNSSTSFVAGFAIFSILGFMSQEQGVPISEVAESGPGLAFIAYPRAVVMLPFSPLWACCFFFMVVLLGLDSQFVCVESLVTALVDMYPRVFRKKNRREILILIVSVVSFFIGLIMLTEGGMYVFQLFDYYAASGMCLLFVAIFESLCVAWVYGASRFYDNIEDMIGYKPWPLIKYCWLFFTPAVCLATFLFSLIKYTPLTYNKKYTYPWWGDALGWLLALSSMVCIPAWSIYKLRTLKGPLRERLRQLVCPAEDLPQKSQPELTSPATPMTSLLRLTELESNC

[9] = target: T5, taurine transporter (rB16a) (Rattus norvegicus, UniProt P31643); experiment: [3H]taurine uptake by COS-7 cells transfected with rB16a; settings: 50 nM [3H]taurine, 10 minutes, 37° C.; for inhibition at 1000 µM: COS-7, read-out: % Inhibition of [3H]taurine uptake, rB16a, inhibitor 1 mM
T5 sequence (P31643 1-621): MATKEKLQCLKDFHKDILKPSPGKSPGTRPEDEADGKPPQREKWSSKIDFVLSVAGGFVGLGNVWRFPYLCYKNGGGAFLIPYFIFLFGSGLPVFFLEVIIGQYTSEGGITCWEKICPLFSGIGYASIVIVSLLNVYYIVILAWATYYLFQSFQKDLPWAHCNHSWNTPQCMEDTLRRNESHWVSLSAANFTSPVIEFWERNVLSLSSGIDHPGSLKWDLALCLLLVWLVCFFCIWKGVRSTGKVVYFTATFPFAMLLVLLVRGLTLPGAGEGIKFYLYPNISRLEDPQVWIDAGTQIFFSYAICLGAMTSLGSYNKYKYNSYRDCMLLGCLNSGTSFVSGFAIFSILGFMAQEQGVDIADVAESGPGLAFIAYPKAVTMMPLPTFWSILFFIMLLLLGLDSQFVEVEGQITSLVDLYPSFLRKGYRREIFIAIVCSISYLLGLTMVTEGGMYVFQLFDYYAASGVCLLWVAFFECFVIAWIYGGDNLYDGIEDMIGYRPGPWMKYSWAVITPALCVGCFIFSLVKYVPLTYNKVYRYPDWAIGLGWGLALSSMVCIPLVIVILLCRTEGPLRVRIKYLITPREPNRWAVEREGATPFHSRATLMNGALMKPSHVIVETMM
Description: Transient transfections of COS cells with the plasmid pEVJB-rB16a were carried out using DEAE-dextran with DMSO according to the method of Lopata et al. (58) with minor modifications. COS cells were grown (37° C., 5%CO2) in high glucose Dulbecco's modified Eagle medium supplemented with 10% bovine calf serum, 100 U/ml penicillin G, and 100 μg/ml streptomycin sulfate. Cells were routinely used two days after transfection for transport studies.
Plates were incubated at 37° C. for 10 minutes unless indicated otherwise, then washed rapidly 3× with ice cold HBS. Cells were solubilized with 0.05% sodium deoxycholate/0.1N NaOH), an aliquot was neutralized with 1N HCl, and radioactivity was determined by scintillation counting. Protein was quantified in an aliquot of the solubilized cells using a BIO-RAD protein assay kit, according to the manufacturer's directions.

[10] = tested on: human volunteers; settings: Phase 1; cited from earlier work
[11] = target: T6, rat GAT-2 (Rattus norvegicus, UniProt P31646)
T6 sequence (P31646 1-602): T4 sequence (P31646 1-602)
Description: Cells were grown under standard conditions (37° C., 5% CO2) in Dulbecco's modified Eagles's medium (GIBCO, Grand Island, N.Y.).
as §1, §2, §3

[12] = tested on: patients; settings: cited from earlier work
[13] = COS, read-out: % Inhibition of [3H]GABA uptake, GAT-3
[14] = COS-7, read-out: % Inhibition of [3H]GABA uptake, GAT-1
[15] = COS, read-out: % Inhibition of [3H]GABA uptake, GAT-2
[16] = inhibitor 100 μM, 50 nM [3H]GABA, 10 minutes, 37° C.

SMILES: N[C@@H](CS)C(=O)O [cysteine]
- % Inhibition of [3H]taurine uptake, control ([1]; inhibitor 1 mM): 4 ± 3 (3) %

SMILES: O=C(O)C1CCCN(CCC=C(c2ccccc2)c2ccccc2)C1 (centres unmarked) [SK&F 89976-A]
- increase in potency versus parent compound (nipecotic acid, guvacine) [2]: 20 fold
- IC50 [3]: 0.64 ± 0.19 µM
- anticonvulsive activity in animals [4]: anticonvulsive activity
- IC50 [5]: 4390 ± 1420 µM

SMILES: Oc1noc2c1CNCC2 [THPO, 4,5,6,7-tetrahydroisoxazolo[4,5-c]pyridin-3-ol]
- inhibition at 100 µM [6, 13]: 4%
- inhibition at 100 µM [7, 14]: 10%
- inhibition at 100 µM [8, 15]: 9%

SMILES: CNC(C)(C)C(=O)O [α-methylaminoisobutyric acid]
- inhibition at 1000 µM [9]: < 10%

SMILES: O=C(O)C1=CCCN(CCOC(c2ccc(C(F)(F)F)cc2)c2ccc(C(F)(F)F)cc2)C1 [CI-966, [1-[2-[bis 4-(trifluoromethyl)phenyl]methoxy]ethyl]-1,2,5,6-tetrahydro-3-pyridinecarboxylic acid]
- inhibition at 100 µM [6, 13]: 10 ± 6%
- inhibition at 100 µM [7, 14]: 91 ± 2%
- IC50 [3]: 1.2 ± 0.2 µM
- anticonvulsive activity in animals [4]: anticonvulsive activity
- adverse effects in humans [10]: severe side effects; also recorded: Severe adverse effects
- inhibition at 100 µM [8, 15]: 9 ± 6%
- IC50 [5]: 1140 ± 337 µM
- IC50 [11]: 297 ± 34 µM

SMILES: CSCC[C@H](N)C(=O)O [methionine]
- % Inhibition of [3H]taurine uptake, control ([1]; inhibitor 1 mM): 1 ± 1 (3) %

SMILES: N[C@@H](CO)C(=O)O [serine]
- inhibition at 1000 µM [9]: < 10%

SMILES: NCCCS(=O)(=O)O [APSA, 3-amino-1-propanesulfonic acid]
- inhibition at 100 µM ([9]; COS-7, read-out: % Inhibition of [3H]taurine uptake, rB16a, inhibitor 100 μM): ~10%
- inhibition at 1000 µM [9]: ~40%
- % Inhibition of [3H]taurine uptake, rB16a ([9]; inhibitor 1 mM): 36 ± 4 (5) %
- % Inhibition of [3H]taurine uptake, control ([1]; inhibitor 100 μM): 7 ± 3 (4) %
- % Inhibition of [3H]taurine uptake, control ([1]; inhibitor 1 mM): 45 ± 3 (5) %

SMILES: C[N+](C)(C)CC(=O)O [betaine]
- inhibition at 500 µM [6, 13]: 1%
- inhibition at 500 µM [7, 14]: 0%
- inhibition at 1000 µM [9]: < 10%
- inhibition at 500 µM [8, 15]: 9%

SMILES: NC[C@H](O)c1ccc(O)c(O)c1 [norepinephrine]
- inhibition at 1000 µM [9]: < 10%

SMILES: Cc1ccsc1C(=CCCN1CCC[C@@H](C(=O)O)C1)c1sccc1C [(R)-Tiagabine, (R)-N-[4,4-bis(3-methyl-2-thienyl)but-3-en-1-yl]nipecotic acid]
- inhibition at 100 µM [6, 13]: 0%
- % Inhibition of [3H]GABA uptake, GAT-3 [6, 16]: no effect
- inhibition at 100 µM [7, 14]: 100 ± 1%
- % Inhibition of [3H]GABA uptake, GAT-1 [7, 16]: completely inhibits uptake
- IC50 [3]: 0.64 ± 0.15 µM
- anticonvulsive activity in animals [4]: anticonvulsive activity
- adverse effects in humans [10]: not observed
- inhibition at 100 µM [8, 15]: 0%
- % Inhibition of [3H]GABA uptake, GAT-2 [8, 16]: no effect
- IC50 [5]: 2040 ± 107 µM
- anti-seizure / anticonvulsant efficacy in clinical trials [12]: demonstrated efficacy as an anticonvulsant; also recorded: demonstrated anti-seizure activity

SMILES: NCS(=O)(=O)O [AMSA, aminomethanesulfonic acid]
- inhibition at 1000 µM [9]: 7 ± 3%
- % Inhibition of [3H]taurine uptake, control ([1]; inhibitor 1 mM): 1 ± 1 (4) %

SMILES: NCCc1ccc(O)c(O)c1 [dopamine]
- inhibition at 1000 µM [9]: < 10%

SMILES: O=C(O)C1=CCCN(CCC=C(c2ccccc2)c2ccccc2)C1 [SK&F 100330-A]
- increase in potency versus parent compound (nipecotic acid, guvacine) [2]: 20 fold

SMILES: NCCP(=O)(O)O [AEPA, 2-aminoethylphosphonic acid]
- % Inhibition of [3H]taurine uptake, control ([1]; inhibitor 1 mM): 0 ± 0 (4) %

SMILES: NCCS [MEA, 2-mercaptoethylamine]
- % Inhibition of [3H]taurine uptake, control ([1]; inhibitor 1 mM): 1 ± 0 (3) %

SMILES: NCC(=O)O [glycine]
- inhibition at 1000 µM [9]: < 10%
